The results in this text go back to patent US12351556B2, “Pyridin-2(1H)one derivatives, their preparation and their use for the treatment of pain” (INSTITUT NATIONAL DE LA SANTE ET DE LA RECHERCHE MEDICALE …, priority 2019, dated 2025).

SMILES strings stand for the structures. Entries after “also recorded” stand apart in the source; their conditions may differ.

Assay [1] deals with inflammatory MA (face CFA model). The assay is described as follows: Face Complete Freund's Adjuvant (CFA) model of inflammatory mechanical allodynia. It is filed as in vivo. Particulars: rat, intracisternal 5 μL at 100 μM, 30 min before CFA. The protocol: FIG. 1 illustrates the results obtained by the intracisternal application of compounds 19-24, 66-72 and 74-82. These compounds prevent face MA in a rat model of inflammatory pain (Complete Freund's Adjuvant (CFA), n=4-6 rats for each compound). For this assay, compounds (5 μL at 100 μM) or control vehicle were intra-cisternally administred 30 min before CFA injection.
Face Complete Freund's Adjuvant (CFA) Model.
CFA (Becton Dickinson) was dissolved in saline solution containing Tween 80 and paraffin oil and conserved at 4° C. For the behavioral tests, animals were briefly (<2 min) anesthetized using a mask with 2% isoflurane and received a subcutaneous injection of 25 μL of CFA (2.5 mg/kg) solution into the right vibrissa pad using a 27 Ga needle coupled to a 25 μL Hamilton syringe, as described previously. After injection, animals were awakened from anesthesia and placed in the behavioral experimental room, followed by a 120 min mechanical testing period.
Intracisternal Injection:
For investigating the effects of synthetized compounds upon mechanical allodynia, animals were briefly (<2 min) anesthetized using a mask with 2% isoflurane and received an intracisternal injection of 5 μL of compound (100 μM) or vehicle alone (saline+1% DMSO) using a 10 μL Hamilton syringe. After recovery (<2 min), rats were placed in an observation field (0.6×0.6 m square) under red light for a period test. 6-g von Frey filament was gently applied every 15 or 30 min onto the orofacial region by a first experimenter. The behavioral responses were observed and quantified by a second experimenter (see below).
Behavioral Responses to Normally Innocuous (6-g Von Frey Filament) Mechanical Stimulation.
The behavioral responses procedure was previously developed by Vos et al. 1994. A rat's response to mechanical stimulation consisted of one or more of the following elements: (1) detection, rat turn head toward stimulus; (2) withdrawal reaction, rat pull paw away or turn head away or pull it briskly backward when stimulation is applied (a withdrawal reaction is assumed to include a detection element preceding the head withdrawal and therefore consists of two responses elements); (3) escape/attack, rats avoid further contact with the stimulus, either passively by moving their bodies away from the stimulus, or actively by attacking the tip of the […]; (4) asymmetric grooming, rats display an uninterrupted series of at least three wash strokes directed to the stimulated area.
The in vivo efficacy of some compounds was evaluated on a rat model of inflammatory MA (face CFA model; Alba-Delgado et al J. Neurosci. 2018, 38, 10489-10504) (FIG. 1). After receiving a subcutaneous injection of 25 μL of CFA (2.5 mg/kg) into the right vibrissa pad, rats develop a MA that lasts days. […] In this model of inflammatory MA, MA was suppressed in compound 69 treated rats, in comparison to animals treated with vehicle (FIG. 2A).

The next assay concerns the target p38α MAPK (Homo sapiens (Human), UniProt Q16539). As to the kind of experiment: p38 alpha IC50. It is filed as biochemical. Particulars: p38 alpha; read-out: Mean IC50. Here is the method:
Studies were undertaken to identify the possible biological target(s) of compound 69. The activation in neurons of PK such as PKCγ, ERK or p38 MAPK can contribute to pain hypersensitivity. Therefore, it was decided to screen compound 69 toward a panel of 50 PKs that provide a representative sampling of the human kinome (FIG. 3, Table 3) (Biochem. J. 2007, 408, 297-315). In this panel, p38α MAPK was identified as the privileged target, with 19% of kinase residual activity at 10 μM compound concentration.
The selectivity of compound 69 was evaluated at 1 μM toward another panel containing all four p38 MAPK isoforms, ERK1, ERK2 as well as other protein kinases close to p38α MAPK in the kinome phylogenetic tree (FIG. 4, Table 4). […] Its IC50 toward p38α MAPK was determined, showing a value in the micromolar range (IC50=3.0±0.1 μM).

Chain of p38α MAPK (Q16539 whole entry): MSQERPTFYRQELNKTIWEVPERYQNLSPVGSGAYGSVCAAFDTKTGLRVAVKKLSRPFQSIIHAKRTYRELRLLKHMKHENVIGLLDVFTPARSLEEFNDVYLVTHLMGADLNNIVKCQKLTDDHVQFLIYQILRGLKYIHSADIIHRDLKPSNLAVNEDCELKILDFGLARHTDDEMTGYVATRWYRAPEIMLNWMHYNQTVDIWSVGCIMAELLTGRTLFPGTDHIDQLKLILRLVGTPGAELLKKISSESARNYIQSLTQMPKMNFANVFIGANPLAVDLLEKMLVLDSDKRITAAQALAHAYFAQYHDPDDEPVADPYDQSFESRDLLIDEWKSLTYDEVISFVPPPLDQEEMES

With `O=c1[nH]cc(Nc2ccccc2)cc1-c1cccc2cccnc12` [Compound 23, 5-(Phenylamino)-3-(quinolin-8-yl)pyridin-2(1H)-one], in assay [1], the “prevention of inflammatory MA (allodynic score, 6-g von Frey filament)” value (“prevention of inflammatory MA” for short) was “prevented the development of inflammatory MA”.
For `O=c1[nH]cc(Nc2cccc(F)c2)cc1-c1cccc2[nH]ccc12` [Compound 119, 5-((3-Fluorophenyl)amino)-3-(1H-indol-4-yl)pyridin-2(1H)-one], at p38α MAPK, the IC50 – broadly, the midpoint of a concentration-inhibition curve – was 1.42 µM.
On the same count and under the same terms, the same measure for `O=c1[nH]cc(Nc2ccc(F)cc2)cc1-c1cccc2[nH]ccc12` [Compound 120, 5-((4-Fluorophenyl)amino)-3-(1H-indol-4-yl)pyridin-2(1H)-one]: 0.43 µM; for `O=c1[nH]cc(Nc2cccc(O)c2)cc1-c1cccc2[nH]ccc12` [Compound 134, 5-((3-hydroxyphenyl)amino)-3-(1H-indol-4-yl)pyridin-2(1H)-one]: 1.04 µM.
The same measure, in the same setting: the same measure for `COc1ccccc1Nc1c[nH]c(=O)c(-c2cccc3[nH]ccc23)c1` [Compound 121, 3-(1H-Indol-4-yl)-5-((2-methoxyphenyl)amino)pyridin-2(1H)-one]: 5.25 µM.
For `O=c1[nH]cc(Nc2ccccc2)cc1-c1cncnc1` [Compound 24, 5-(Phenylamino)-3-(pyrimidin-5-yl)pyridin-2(1H)-one], the “prevention of inflammatory MA” value in assay [1] is recorded as “prevented the development of inflammatory MA”.
In the case of `O=c1[nH]cc(Nc2ccc(Br)cc2)cc1-c1cccc2[nH]ccc12` [Compound 143, 5-((4-Bromophenyl)amino)-3-(1H-indol-4-yl)pyridin-2(1H)-one], the IC50 at p38α MAPK was found to be 2.35 µM.
Same read-out and setting: as for `O=c1[nH]cc(Nc2ccccc2Br)cc1-c1cccc2[nH]ccc12` [Compound 141, 5-((2-Bromophenyl)amino)-3-(1H-indol-4-yl)pyridin-2(1H)-one], the figure is 2.72 µM; as for `Cc1ccccc1Nc1c[nH]c(=O)c(-c2cccc3[nH]ccc23)c1` [Compound 130, 3-(1H-Indol-4-yl)-5-(o-tolylamino)pyridin-2(1H)-one], 1.06 µM.
With `O=c1[nH]cc(Nc2ccccc2)cc1-c1ccc(F)cc1F` [Compound 82, 3-(2,4-Difluorophenyl)-5-(phenylamino)pyridin-2(1H)-one], in assay [1], the “prevention of inflammatory MA” value is recorded as “prevented the development of inflammatory MA”.
Take `O=c1[nH]cc(Nc2ccccc2F)cc1-c1cccc2[nH]ccc12` [Compound 118, 5-((2-Fluorophenyl)amino)-3-(1H-indol-4-yl)pyridin-2(1H)-one]: on p38α MAPK, the half-maximal inhibitory concentration (IC50) turned out to be 0.23 µM.
As for `O=c1[nH]cc(Nc2ccccc2)cc1-c1ccccc1[N+](=O)[O-]` [Compound 72, 3-(2-Nitrophenyl)-5-(phenylamino)pyridin-2(1H)-one], in assay [1], the “prevention of inflammatory MA” value is recorded as “prevented the development of inflammatory MA”.
For `CCOC(=O)c1ccccc1-c1cc(Nc2ccccc2)c[nH]c1=O` [Compound 70, Ethyl 2-(2-oxo-5-(phenylamino)-1,2-dihydropyridin-3-yl)benzoate], the “prevention of inflammatory MA” value in assay [1] was “high activities”.
The same measure, in the same setting: the same measure for `CC(=O)c1cccc(-c2cc(Nc3ccccc3)c[nH]c2=O)c1` [Compound 75, 3-(3-Acetylphenyl)-5-(phenylamino)pyridin-2(1H)-one]: “prevented the development of inflammatory MA”; for `Cc1ccc(-c2cc(Nc3ccccc3)c[nH]c2=O)cc1` [Compound 77, 5-(Phenylamino)-3-(p-tolyl)pyridin-2(1H)-one]: “prevented the development of inflammatory MA; also recorded: comparable gains of activity”.
For `O=c1[nH]cc(Nc2cccc(Br)c2)cc1-c1cccc2[nH]ccc12` [Compound 142, 5-((3-Bromophenyl)amino)-3-(1H-indol-4-yl)pyridin-2(1H)-one], on p38α MAPK, the IC50 worked out at 0.66 µM.
Turning to `O=c1[nH]cc(Nc2ccccc2)cc1-c1ccc(OC(F)(F)F)cc1` [Compound 79, 5-(Phenylamino)-3-(4-(trifluoromethoxy)phenyl)pyridin-2(1H)-one], in assay [1], the “prevention of inflammatory MA” value is recorded as “prevented the development of inflammatory MA”.
As to `NC(=O)c1ccc(-c2cc(Nc3ccccc3)c[nH]c2=O)cc1` [Compound 81, 4-(2-Oxo-5-(phenylamino)-1,2-dihydropyridin-3-yl)benzamide], the “prevention of inflammatory MA” value in assay [1] was “prevented the development of inflammatory MA”.
`O=c1[nH]cc(Nc2ccccc2)cc1-c1ccncc1` [Compound 21, 5-(Phenylamino)-[3,4′-bipyridin]-2(1H)-one]: in assay [1], the “prevention of inflammatory MA” value was “comparable gains of activity”.
In the case of `COc1cccc(Nc2c[nH]c(=O)c(-c3cccc4[nH]ccc34)c2)c1` [Compound 122, 3-(1H-Indol-4-yl)-5-((3-methoxyphenyl)amino)pyridin-2(1H)-one], the IC50 on p38α MAPK worked out at 5.53 µM.
On to `COc1ccc(Nc2c[nH]c(=O)c(-c3cccc4[nH]ccc34)c2)cc1` [Compound 123, 3-(1H-Indol-4-yl)-5-((4-methoxyphenyl)amino)pyridin-2(1H)-one], for which the IC50 at p38α MAPK was found to be 3.67 µM.
